Assay results as given in patent US20090170758A1, “COMPOSITIONS COMPRISING PULMONARY SURFACTANTS AND A POLYMYXIN HAVING IMPROVED SURFACE PROPERTIES” (Chiesi Farmaceutici S.p.A., priority 2002, published 2009).

Assay: Spreading experiments on a modified Wilhelmy balance
Assay type: physicochemical
Conditions: Curosurf diluted to 20 mg/ml, 10 microl
Description: Experiments were performed at 37° C. using a modified Wilhelmy balance with a surface area of 20 cm^2. Standard amounts of Curosurf at various concentrations (10-80 mg/ml) were applied onto a hypophase of saline, approximately 40 mm from the dipping plate. In some experiments, CaCl2 (2 mM), dextran (30 mg/ml), or polymyxin B (2% on the weight of the surfactant, i.e. 0.4 mg/ml) was added to diluted surfactant material (20 mg/ml). The effect of albumin at low concentration (0.1 mg/ml) added to the hypophase was also investigated. Surface tension, measured 1 sec after administration of the sample was used as a parameter combining spreading and film formation by adsorption from the hypophase.

[1] = agent added to surfactant (CaCl2 2 mM, dextran 30 mg/ml, polymyxin B 2% = 0.4 mg/ml), no albumin
[2] = agent added to surfactant, albumin 0.1 mg/ml added to the hypophase

Row | Compound | Surface tension at 1 sec (mN/m) [1] [mN/m] | Surface tension at 1 sec (mN/m) [2] [mN/m]
1 | [Ca+2].[Cl-].[Cl-] [CaCl2] | 52 | 70
2 | polymyxin B | 28 | 45
